Results published in patent publication US5380834A, “Immuno-suppressive agent” (Ishihara Sangyo Kaisha Ltd., priority 1992, dated 1995).
In brackets after ≈: the same amount, converted by molar mass.

Legend:
murine thymocytes = assay: Effects on the mitogenic response by murine thymocytes (Con A stimulation, 3H-TdR uptake); type: cell-based, BALB/c murine; conditions: Mus musculus, Thymocyte; BALB/c thymocytes, Con A 5 μg/ml, 48 hours, 3H-TdR uptake; read-out: IC50 value, a (mitogenic response of murine thymocytes)
Description: Using BALB/c murine thymocytes, the effect of the compound of the formula (I) on the mitogenic response of lymphocytes to the stimulation by concanavalin A (hereinafter referred to simply as Con A, Product No. L-1000, manufactured by Vector Laboratories) was studied. Namely, 4×10^5 murine thymocytes were cultured for 48 hours on a microplate with 96 wells in a RPMI1640 solution containing 10% of a fetal bovine serum (hereinafter referred to simply as a 10% FCS-RPMI solution) together with Con A (5 μg/ml) and the compound of the formula (I) (in an incubator, 5% CO2, at 37° C.). Then, 0.5 μCi of ^3 H-thymidine (hereinafter referred to simply as ^3 H-TdR) was added thereto, and the mixture was further cultured for 4 hours. Then, cells were collected by a cell harvester, and the radioactivity (dpm) of ^3 H-TdR uptaken into cells was measured. Such measured amounts of ^3 H-TdR uptaken into the cells were used as indices of the mitogenic response of the murine thymocytes, and the radioactivity at each concentration (from 0.001 to 1,000 μg/ml) of the compound of the formula (I) was compared with the control value treated solely by Con A, to calculate IC50 value. In these Tables 12 and 13, the results of murine thymocytes are shown by (a).
For the basic procedure of this test, reference was made to Selected methods in cellular immunology, p. 144-146 (translated by Katsuyuki Imai et al., published by Rikogakusha, (1982)).

[1] = tested on: murine mixed lymphocyte reaction (spleen cells of BALB/c and C57BL/6 mice); assay: Effects on the murine mixed lymphocyte reaction (3H-TdR uptake); type: cell-based; conditions: Mus musculus, BALB/c + C57BL/6 spleen cells, 48 hours, read-out: IC50 value, b (murine mixed lymphocyte reaction)
Description: Using spleen cells of BALB/c and C57BL/6 mice, the effect of the compound of the formula (I) on the murine mixed lymphocyte reaction in both sides, was studied. Namely, spleen cells of both types of mice were mixed in an equal amount of 5×10^5 cells each, and the mixed cells were cultured together with the compound of the formula (I) for 48 hours on a microplate with 96 wells by a 10% FCS-RPMI solution (in an incubator, 5% CO2, at 37° C.). Then, 0.5 μCi of ^3 H-TdR was added thereto, and the mixture was further cultured for from 16 to 18 hours. Then, cells were collected by a cell harvester, and the radioactivity (dpm) of ^3 H-TdR uptaken into the cells, was measured. Such measured amounts of ^3 H-TdR uptaken into the cells were used as indices for the mixed lymphocyte reaction, and the radioactivity at each concentration (from 0.001 to 1,000 μg/ml) of the compound of the formula (I) was compared with the non-treated control value, to calculate the Ic50 value.
For the basic procedure for this test, reference was made to Selected methods in cellular immunology, p. 147-149 (translated by Katsuyuki Imai et al., published by Rikogakusha, (1982)).

murine bone mallow cells = assay: Effects on the murine bone mallow cells (proliferation, 3H-TdR uptake); type: cell-based, BALB/c mouse; conditions: Mus musculus, bone marrow cells; 20% L929 culture supernatant, 48 hours, 3H-TdR uptake; Tables 12-15; read-out: IC50 value, c (murine bone mallow cells)
Description: Bone mallow cells were removed from the femur of a BALB/c mouse and suspended in a 10% FCS-RPMI solution. The cell suspension was put into a plastic Petri dish having a diameter of 10 cm and left to stand still (in an incubator, 5% CO2, at 37° C.). Two hours later, only floating cells were recovered, and adhesion cells were removed. 1×10^5 floating cells were cultured for 48 hours together with a 20% culture supernatant of L929 fibroblastoma and the compound of the formula (I) on a microplate with 96 wells by a 10% FCS-RPMI solution (in an incubator, 5% CO2, at 37° C.). Then, 0.5 μCi of ^3 H-TdR was added thereto, and the mixture was further cultured for 4 hours. Then, cells were collected by a cell harvester, and the radioactivity (dpm) of ^3 H-TdR uptaken into the cells, was measured. Such measured amounts of ^3 H-TdR uptaken into the cells were used as indices for the proliferation of bone mallow cells, and the radioactivity at each concentration (from 0.001 to 1,000 μg/ml) of the compound of the formula (I) was compared with the control value where the L929 culture supernatant was added alone, to calculate the IC50 value. In these Tables 12 and 13, the results of the bone mallow cells are shown by (c).
For the basic procedure of this test, reference was made to Seikagakujikken Koza compiled by Japan Biochemistry Association, Vol. 5, p. 266-270 (published by Tokyo Kagaku Dojin in 1986).

[2] = tested on: IgGl antibody production from murine spleen B cells; assay: Effects on the IgGl antibody production from murine spleen cells (LPS + IL4); type: cell-based, BALB/c mouse; conditions: Mus musculus, B-cell, 168 h; spleen B cells, LPS 10 μg/ml, IL4 100 U/ml, 7 days, enzyme-immunoassay; read-out: IC50 value, IgGl antibody production
Description: (§1) Using murine spleen B cells, the effects of the compound of the formula (I) on the IgGl, IgM and IgE antibody production induced by the stimulation by LPS (lipopolysaccharide; Product No. 520.02051, manufactured by Wako Junyaku) and IL4 (interleukin 4), were studied. Namely, spleen cells of a BALB/c mouse were treated with a murine anti-Thy-1 antibody (obtained from Chiba University) and a rabbit complement (Product No. 3051, manufactured by cedarlane) to remove T cells, and 3×10^5 spleen B cells were cultured for 7 days together with 10 μg/ml of LPS, 100 U/ml of mouse-recombinant IL4 (Product No. MIL-4C, manufactured by Genzyme) and each concentration (from […]) of the compound of the formula (I) on a microplate with 96 wells by a 10% FCS-RPMI solution (in an incubator, 5% CO2, at 37° C.).
(§2) For the basic procedure of this test, reference was made to The Journal of Immunology, Vol. 136, p. 4538, (1986).
(§3) The amount of each antibody in the cell culture supernatant hereby obtained, was measured by the following enzyme-immunoassay. Firstly, on a microplate with 96 wells, 1 μg/ml of a rabbit anti-mouse IgGl antibody (Product No. 36243, manufactured by Cappel), 1 μg/ml of a goat anti-mouse IgM antibody (Product No. 0611-0201, manufactured by Cappel) or 10 μg/ml of a rat anti-mouse IgE monoclonal antibody (Product No. LO-ME-2, manufactured by Experimental Immunology) was coated (50 μl/well, at room temperature for 60 minutes), and then a nonspecific bond was blocked by a 0.1% bovine serum albumin-containing 10 mM sodium phosphate buffer (pH 7.2) (at room temperature for 60 minutes). Then, the above-mentioned cell culture supernatant or its diluted solution was added in an amount of 50 μl/well and reacted at room temperature for 60 minutes. Further, an alkaline phosphatase-labeled rabbit anti-mouse IgGl antibody (Product No. 61-0122, manufactured by Zymet) diluted 1,000 times, an alkaline phosphatase-labeled rabbit anti-mouse IgM antibody (Product No. 61-6822, manufactured by Zymet) diluted 2,000 times, or an alkaline phosphatase-labeled goat anti-mouse IgE antibody (Product No. PA-284, manufactured by Binding Site) diluted 500 times was added in an amount of 50 μl/well and reacted at room temperature for 60 minutes. 100 μl/well of a 10% diethanol amine buffer solution (pH 9.8) containing p-nitrophenyl phosphate as an enzyme substrate, was reacted, and the absorbance at 405 nm was measured. The amount of each antibody was calculated from the calibration curve of each standard antibody, and the IC50 value of the compound of the formula (I) on the antibody production was calculated using as the control value a value obtained in the absence of the compound of the formula (I).

[3] = tested on: IgM antibody production from murine spleen B cells; assay: Effects on the IgM antibody production from murine spleen cells (LPS + IL4); type: cell-based, BALB/c mouse; conditions: Mus musculus, B-cell, 168 h; spleen B cells, LPS 10 μg/ml, IL4 100 U/ml, 7 days, enzyme-immunoassay; read-out: IC50 value, IgM antibody production
Description: as §1, §2, §3

[4] = tested on: IgE antibody production from murine spleen B cells; assay: Effects on the IgE antibody production from murine spleen cells (LPS + IL4); type: cell-based, BALB/c mouse; conditions: Mus musculus, B-cell, 168 h; spleen B cells, LPS 10 μg/ml, IL4 100 U/ml, 7 days, enzyme-immunoassay; read-out: IC50 value, IgE antibody production
Description: as §1, §2, §3

For `O=C(CCCCCCCCCCCCCCCO)O[C@H]1C=C[C@H]2CO[C@@H]1O2` [Compound 49, 1,6-anhydro-3,4-dideoxy-2-O-(16-hydroxy)hexadecanoyl-β-D-threo-hex-3-enopyranose], the IC50 (murine thymocytes) was 11 µg/mL (≈ 28.8 µM), the IC50 [1] was 32 µg/mL and the IC50 (murine bone mallow cells) was 41 µg/mL (≈ 107 µM). The IC50 [2] was < 0.1 µg/mL, the IC50 [3] was 0.43 µg/mL and the IC50 [4] was < 0.1 µg/mL.

`Cc1ccccc1C(=O)O[C@H]1C=C[C@H]2CO[C@@H]1O2` [Compound 50] was tested, and the IC50 (murine thymocytes) was 52 µg/mL (≈ 211 µM), the IC50 [1] was 180 µg/mL and the IC50 (murine bone mallow cells) was 380 µg/mL (≈ 1540 µM). For the same molecule, the IC50 [2] was < 0.001 µg/mL, the IC50 [3] was < 0.001 µg/mL and the IC50 [4] was < 0.001 µg/mL.

`O[C@@H]1C=C[C@H]2CO[C@@H]1O2` [Compound 103, 1,6-anhydro-3,4-dideoxy-β-D-erythro-hex-3-enopyranose] was tested, and the IC50 (murine thymocytes) was 780 µg/mL (≈ 6090 µM), the IC50 [1] was > 1000 µg/mL and the IC50 (murine bone mallow cells) was > 1000 µg/mL. The IC50 [2] was 0.45 µg/mL, the IC50 [3] was 1.3 µg/mL and the IC50 [4] was 2.1 µg/mL.

`CCCCCCCCCCCCCCCC(=O)O[C@@H]1C=C[C@H]2CO[C@@H]1O2` [Compound 109] was tested, and the IC50 (murine thymocytes) was 550 µg/mL (≈ 1500 µM), the IC50 [1] was 740 µg/mL and the IC50 (murine bone mallow cells) was > 1000 µg/mL. For the same molecule, the IC50 [2] was < 0.1 µg/mL, the IC50 [3] was 31 µg/mL and the IC50 [4] was < 0.1 µg/mL.
